In data set [1] the test system is Candida albicans TIMM0136. Nature of the data set: Antifungal activity, growth inhibition. Format: cell-based. The conditions noted are these: 10 μl of solution at 100 or 500 μg/ml added to 100 μl culture, 30° C., 48 hours. The procedure:
Dipropionylcyclopentenone, diisobutyrylcyclopentenone and di-2-hexenoylcyclopentenone were used to examine their antifungal activities against Candida albicans TIMM0136.
Candida albicans cells were cultured overnight in YNBG medium containing 0.67% Yeast Nitrogen Base (Difco) and 1.0% glucose (seed culture). The culture was then diluted with fresh Yeast Nitrogen Base medium to a concentration of 1×10^6 cells/ml. 100 μl of the dilution was dispensed into each well of a 96-well microtiter plate.
10 μl each of solutions of dipropionylcyclopentenone, diisobutyrylcyclopentenone or di-2-hexenoylcyclopentenone in 70% ethanol at a concentration of 100 μg/ml or 500 μg/ml, or 10 μl of 70% ethanol solution was added to the well. The plate was incubated without shaking at 30° C. for 48 hours (main culture).

Data set [2] deals with HL-60 (ATCC CCL-240) cells. Description: Viability and apoptosis of HL-60 cells (Trypan Blue, optical microscope). The conditions noted are these: 24 hours; for IC50: Homo sapiens, Trypan Blue, read-out: Viability50 (concentration that results in a viability of 50%). The data set is classed as cell-based. As to the method:
HL-60 (ATCC CCL-240) cells were cultured at 37° C. in RPMI 1640 medium (Bio Whittaker) containing 10% fetal calf serum (FCS; JRH) which had been treated at 56° C. for 30 minutes and suspended in RPMI 1640 medium at a concentration of 2.5×10^5 cells/5 ml.
10 μl each of solutions of diisobutyrylcyclopentenone, dimethoxyacetylcyclopentenone, dimethylfumarylcyclopentenone or dimethylmaleylcyclopentenone in 70% ethanol in water diluted to varying concentrations was added to 5 ml of the suspension. The mixtures were incubated at 37° C. for 24 hours in the presence of 5% Co2. 10 μl of aqueous actinomycin D (Sigma) solution (0.5 mg/ml), which is known as a reagent that induces apoptosis, was used in place of the sample and the mixture was incubated under the same conditions for confirmation.
The cultured cells were examined under an optical microscope.
Furthermore, a portion of the cells cultured as described above was stained with 0.4% Trypan Blue and examined under an optical microscope. The number of viable cells which were not stained and the number of dead cells which were stained blue were counted. The concentration of each of the samples that results in a viability of 50% (Viability50 μM) was determined.

The test system of data set [3] is Meth A. Nature of the data set: Ascitic cancer Meth A, prolongation of survival, 5 successive days. The conditions noted are these: intraperitoneal 10 mg/kg. Format: in vivo, BALB/c mouse. The procedure: (§1) (3) The carcinostatic activities of dipropionylcyclopentenone and diisobutyrylcyclopentenone against various ascitic cancers were examined using two types of cancer cells, Ehrlich ascites carcinoma (EAC) and Meth A, administered intraperitoneally or orally at a varying dose.
(§2) Dipropionylcyclopentenone or diisobutyrylcyclopentenone was intraperitoneally or orally administered for 5 successive days from the day after the transplantation with cancer cells. Injectable distilled water was administered to a control group in a similar manner. Average days of survival, prolongation rate and 30-day survival number were calculated for groups each consisting of 8 mice.

Data set [4] in a line: Single oral dose toxicity. Format: in vivo. The conditions noted are these: mouse. The procedure:
No toxicity is observed when a physiologically effective amount of the cyclopentenone derivative or an optical isomer thereof, or a salt thereof obtained according to the present invention is administered.

The test system of data set [5] is tumor necrosis factor (TNF)-α. Nature of the data set: Endotoxin shock model, serum TNF-α after LPS. The data set is classed as in vivo, CDF1 mice. The conditions noted are these: serum 1.5 hours after LPS. As to the method: (1) A model for endotoxin shock was constructed using CDF1 mice (8 weeks old, female, purchased from Japan SLC). Distilled water (control), or 10 mg/kg of diisopropionylcyclopentenone or diisobutyrylcyclopentenone was subcutaneously administered to a mouse. 20 μg of lipopolysaccharide (LPS; Sigma) was intraperitoneally administered to each mouse 30 minutes after the administration. Blood was collected from the mouse 1.5 hours after the administration with LPS. The amount of tumor necrosis factor (TNF)-α in a serum separated from the collected blood was measured using a commercially available ELISA kit (R&D). Each group consisted of 4 mice.
(2) A model for endotoxin shock was constructed by intraperitoneally administering 20 μg of LPS to a CDF1 mouse (8 weeks old, female). 30 or 100 mg/kg of dipropionylcyclopentenone or diisobutyrylcyclopentenone was orally administered 30 minutes before the administration with LPS. Blood was collected from the mouse 1.5 hours after the administration with LPS. The amount of TNF-α in a serum separated from the collected blood was measured using an ELISA kit. Each group consisted of 4 mice.

Data set [6] concerns 70-kDa heat shock protein. Nature of the data set: Induction of 70-kDa heat shock protein in HL-60 cells (Western blot). The data set is classed as cell-based. Also noted: key to Degree of induction of 70-kDa heat shock protein: − means that no induction was observed; ± means that a slight induction was observed; + represents the induction level; ++: Increased number of + means increased induction; +++: Increased number of + means increased induction. The conditions noted are these: for Degree of induction of 70-kDa heat shock protein: HL-60, 6 hours. As to the method:
(1) 5 ml of RPMI 1640 medium containing 10% fetal calf serum and HL-60 (ATCC CCL-240) cells at a concentration of 2×10^5 cells/ml was placed in each well of a 6-well plate. The plate was incubated at 37° C. for 24 hours in the presence of 5% CO2. Dipropionylcyclopentenone, diisobutyrylcyclopentenone or di-2-hexenoylcyclopentenone at a final concentration of 0, 0.63, 1.3, 2.5, 5, 10 or 20 μM was then added thereto. The incubation was continued for additional 6 hours.
After incubation, the cell number was counted. The cells were harvested by centrifugation, washed with PBS to prepare cells treated with one of the samples. Cells that were cultured in the same manner after heated at 45° C. for 10 minutes were also prepared.
These treated cells were used for SDS-PAGE according to the method as described in Molecular Cloning [Cold Spring Harbor Laboratory Press (1989)]. The treated cells were suspended in SDS-PAGE Sample buffer at a concentration of 2.5×10^6 cells/ml. The cell suspensions were treated at 100° C. for 10 minutes. 5 μl each of the cell suspensions was applied to two SDS-PAGE gels (5% stacking gel, 10% separation gel) and electrophoresed. One of the gels was subjected to Coomassie staining. The other gel was blotted onto a polyvinylidene difluoride transfer membrane (Immobilon™, Millipore, Cat. #IPVH000-10). The membrane was blocked at 4° C. overnight using Block Ace (Dainippon Pharmaceutical, Cat. #UK-B25).
The blocked membrane was reacted with a monoclonal antibody HSP72/73(Ab-1) (Oncogene Research Products, Cat. #HSP01), which specifically reacts with heat-inducible 70-kDa heat shock protein. The membrane was washed with TBS containing 0.05% Tween 20 followed by TBS. The membrane was then reacted with a peroxidase-conjugated secondary antibody HRP-Rabbit Anti-Mouse IgG (H+L) (Zymed Laboratories, Inc., Cat. #61-6520), and then washed as described above. The membrane reacted with the primary and secondary antibodies was reacted with a chemiluminol reagent Renaissance™ (Dupont NEN, Cat. #NEL-100). The membrane was then exposed to an X-ray film to confirm the induction of 70-kDa heat shock protein.
Background: In western blotting, separated proteins are transferred to a membrane and probed.

Data set [7] has as its system Ehrlich ascites carcinoma (EAC). Description: Ascitic cancer EAC, prolongation of survival. Format: in vivo, ddY mouse. The conditions noted are these: 5 successive days; for 30-day survival number: groups of 8 mice. As to the method:
as §1, §2

The test system of data set [8] is λ-carrageenan pedal edema. Description: Carrageenan induced pedal edema. The data set is classed as in vivo, Lewis rats. The conditions noted are these: rat, 3 hours after carrageenan. As to the method:
Lewis rats (male, 9 weeks old, weighing about 250 g) were purchased from Seac Yoshitomi.
Rats were fasted from 18 hours before the start of the experiments. Dipropionylcyclopentenone, dihexanoylcyclopentenone, di-2-hexenoylcyclopentenone, diisobutyrylcyclopentenone or dibenzoylcyclopentenone dissolved in olive oil (Nacalai Tesque) was orally administered to 4 rats per group at 1 or 10 mg/10 ml/kg.
100 μl of 1% λ-carrageenan (Wako Pure Chemical Industries) suspension in saline (Otsuka Pharmaceutical) was injected into the sole of right paw of a rat 0.5 hour after the administration of test substance to induce pedal edema. The volume of the right foot of the rat was measured using an instrument for measuring pedal volume (Ugo Basile) 3 hours after the injection with carrageenan. The measurements were expressed as the rate of increase calculated based on the volume of the right foot of each rat measured before the administration with carrageenan.
FIG. 5 illustrate the relationship between the amount of cyclopentenone derivative administered and the rate of increase in edema in foot. The horizontal axis represents the dose […] and the vertical axis represents the rate of increase (%).
(In general: In the carrageenan paw model, swelling and tenderness develop within hours.)

Setting [9] is: oral, single dosage of 100 mg/kg.

≈ marks a conversion by molar mass, not a printed value. Numbered stars: 1 amine (or outer) side, 2 acyl side, 3 side chain; on linkers, the order of the positions; unused ones are H or OH. Bridge positions count the residues as written; N and C are the ends. Square brackets hold non-standard residues; d marks the D form. Peptide text beside a SMILES is read from it. I, II: the chains in the order shown. Actinocin(9to1) = Cc1c2oc3c(C)ccc(C(=O)[*:1])c3nc-2c(C(=O)[*:2])c(N)c1=O; NMeV = CN[C@H](C(=O)O)C(C)C; Sar = CNCC(=O)O

For `CC(C)C(=O)OC1C=CC(=O)C1OC(=O)C(C)C` (stereo not drawn) [Diisobutyrylcyclopentenone, diisobutyrylcyclopentenone], the MIC in data set [1] (Candida albicans, TIMM0136, read-out: Minimum growth inhibitory concentration) was found to be 500 µg/mL (≈ 1970 µM). The IC50 in data set [2] was 8.8 µM. For the same molecule, the “Average days of survival” value in data set [3] amounted to 15.5 days; in data set [7] (intraperitoneal 10 mg/kg), 17.0 days; in data set [7] (intraperitoneal 30 mg/kg), 25.3 days; in data set [7] (oral 30 mg/kg) it was 15.1 days; in data set [7] (oral 100 mg/kg), 20.9 days. Further, the Prolongation rate is given as 132% in data set [3]; 136% in data set [7] (intraperitoneal 10 mg/kg); >202% in data set [7] (intraperitoneal 30 mg/kg); 121% in data set [7] (oral 30 mg/kg); 167% in data set [7] (oral 100 mg/kg). For the same molecule, the 30-day survival number in data set [3] (groups of 8 mice) worked out at 0; in data set [7] (intraperitoneal 10 mg/kg) it was 0; in data set [7] (intraperitoneal 30 mg/kg) it was 3; in data set [7] (oral 30 mg/kg) it was 0; in data set [7] (oral 100 mg/kg), 0. In addition, in data set [4] (in vivo, po, 100 mg/kg), the “Death after single oral administration” value was “no death was observed”. For the same molecule, in data set [5] (10 mg/kg subcutaneous 30 minutes before LPS), the “Amount of TNF mean ± SE” value turned out to be 3.39 ± 0.33 ng/mL. Also, the “TNF mean ± SE” value in data set [5] (30 mg/kg oral 30 minutes before LPS) stood at 3.92 ± 0.13 ng/mL; in data set [5] (100 mg/kg oral 30 minutes before LPS), 2.48 ± 0.43 ng/mL. In addition, the “Concentration at which ability to induce HSP70 is maximized” value in data set [6] was found to be 2.5 µM. Moreover, the “Concentration at which ability to induce HSP70 is observed” value in data set [6] came out at 1.25 µM. In addition, the “Degree of induction of 70-kDa heat shock protein” value is “±” in data set [6] (0.63 μM); “+” in data set [6] (1.3 μM); “+++” in data set [6] (2.5 μM); “+++” in data set [6] (5 μM); “+” in data set [6] (10 μM); “+” in data set [6] (20 μM).

As for `COCC(=O)OC1C=CC(=O)C1OC(=O)COC` (stereo not drawn) [Dimethoxyacetylcyclopentenone, dimethoxyacetylcyclopentenone], the IC50 in data set [2] is 14 µM.

With `COC(=O)/C=C/C(=O)OC1C=CC(=O)C1OC(=O)/C=C/C(=O)OC` (stereo not drawn) [Dimethylfumarylcyclopentenone, dimethylfumarylcyclopentenone], in data set [2], the IC50 came out at 2.9 µM.

As to `Cc1c2oc3c(C)ccc(C(=O)N[C@@H]4C(=O)N[C@H](C(C)C)C(=O)N5CCC[C@H]5C(=O)N(C)CC(=O)N(C)[C@@H](C(C)C)C(=O)O[C@@H]4C)c3nc-2c(C(=O)N[C@@H]2C(=O)N[C@H](C(C)C)C(=O)N3CCC[C@H]3C(=O)N(C)CC(=O)N(C)[C@@H](C(C)C)C(=O)O[C@@H]2C)c(N)c1=O` [actinomycin D, reference compound] (I: T[dV]P[Sar][NMeV] / II: T[dV]P[Sar][NMeV]; ester I:1-I:C, II:1-II:C; linker I:N-II:N via Actinocin(9to1)), the “Apoptosis-inducing / antiproliferation activity (condensation of nuclei, shrinking of cells, apoptotic bodies)” value in data set [2] (optical microscope) is “Condensation of nuclei, shrinking of cells and formation of apoptotic bodies were observed”.

For di-2-hexenoylcyclopentenone, the “Minimum growth inhibitory concentration” value in data set [1] came to 500 µg/mL. For the same molecule, in data set [4] (setting [9]), the “Death after single oral administration” value is reported as “no death was observed”. In addition, the “Degree of induction of 70-kDa heat shock protein” value is on record as “±” in data set [6] (0.63 μM); “+” in data set [6] (1.3 μM); “++” in data set [6] (2.5 μM); “+++” in data set [6] (5 μM); “±” in data set [6] (10 μM); “−” in data set [6] (20 μM). Further, the “Suppression of edema in foot (FIG. 5)” value in data set [8] (1 mg/kg oral) and in data set [8] (10 mg/kg oral) was “significant suppression” throughout.

In the case of dihexanoylcyclopentenone, in data set [4] (setting [9]), the “Death after single oral administration” value is on record as “no death was observed”. For the same molecule, the “Suppression of edema in foot (FIG. 5)” value in data set [8] (1 mg/kg oral) and in data set [8] (10 mg/kg oral) was “significant suppression” in each case.
